# Data taken from publication PMC9810167, “Novel dual LSD1/HDAC6 inhibitor for the treatment of cancer” (PLOS ONE, 2023).
# Where two headings read alike, the source gives them in different places.
# Assays:
# [1] = system: MM1.S xenograft; assay: MM1.S multiple myeloma xenograft model; format: in vivo; conditions: for TGI: 13 d
# [2] = system: CD86; assay: Differentiation marker mRNA by RT-qPCR in HEL 92.1.7 cells; format: cell-based, human; conditions: HEL92.1.7, 3–48 h
# Method: (§1) Total RNA was isolated using the TRIzol (Thermo Fisher Scientific, Waltham, MA, USA) reagent according to the manufacturer's instructions. The obtained RNA was reverse-transcribed to synthesize the complementary DNA from RNA using High Capacity cDNA Reverse Transcription Kit (Applied Biosystems, U.S.). DyNAmo ColorFlash SYBR Green qPCR Kit (Thermo Fisher Scientific) was used with cDNA and gene specific primers at a final volume of 10 μL. Real-time quantitative PCR was performed for 40 cycles of 15 s each, at 95°C and 30 s at 60°C, using a CFX96 real time machine (Bio-Rad). All reactions were performed in duplicate and the data was calculated using the delta (delta Ct) method. The relative gene expression levels for a target gene was normalized to the expression of β-actin. All the primer sequences were procured from Eurofins Genomics India Limited. Primer sequences for the analysed genes are as follows: • beta Actin [NT], beta Actin [NT]. Gfi1b [NT], Gfi1b [NT], CD86 [NT], CD86 […], CD11b [NT]
# [3] = system: CD11b; assay: as above; format: cell-based, human; conditions: HEL92.1.7, 3–48 h
# Method: as §1
# [4] = system: GFI1b; assay: as above; format: cell-based, human; conditions: HEL92.1.7, 3–48 h
# Method: as §1
# [5] = system: HEL 92.1.7; assay: Cell proliferation assay (Alamar Blue); format: cell-based, human; conditions: for EC50: Homo sapiens
# Method: (§2) Cells were seeded in NUNC 96-well tissue culture plates (Life Technologies) in […] culture medium and incubated at 37°C/ 5% CO2 to adhere to plastic for 18–24 h. […] One set of plates (designated for the 144 h read out) were centrifuged at low speed for 30 seconds, and respective compounds were replenished in fresh media and incubated for another 68–72 h at 37°C/ 5% CO2. […] The inhibition curve was then fitted by plotting % inhibition against log concentration in GraphPad Prism 5.0 (GraphPad Software, Inc.) and the GI50 value of compound was determined. Data are representative of at least two independent experiments.
# [6] = system: remaining HDACs; assay: HDAC panel HDAC1 to HDAC10, remaining HDACs (other than HDAC6 and HDAC8); format: biochemical; conditions: about […] to >10 μM, read-out: IC50 against the remaining HDACs
# Method: (§3) Dose-response studies for HDAC isoforms were conducted at Reaction Biology Corporation. All assays are based on the same principle of a two-step reaction: first, the substrate with the acetylated lysine side chain is incubated with a sample containing HDAC enzyme, to produce the deacetylated products, which are then digested in the second step by the addition of the developer to produce the fluorescent signal proportional to the amount of deacetylated substrates. Recombinant proteins HDAC1, HDAC2, HDAC3, HDAC4, HDAC5, HDAC6, HDAC7, HDAC8, HDAC9, and HDAC10 were incubated with a test compound for 5min, and then the fluorophore-conjugated substrate was added to the wells and incubated for 30 min to 2 h for different HDACs. Reactions were performed in assay buffer (50 mM Tris-HCl, pH 8.0, 137 mM NaCl, 2.7 mM KCl, 1 mM MgCl2, 1 mg/mL BSA, 1% DMSO, pH 7.4) and fluorescence measurements were obtained approximately every 20 min for an hour using an Envision, Perkin-Elmer plate reader (Excitation 360 nm/Emission 460 nm). IC50 values and curve fits were obtained using (GraphPad Prism Software, Inc.).
# [7] = system: CT-26 syngeneic tumors; assay: CT-26 mouse colon cancer syngeneic model; format: in vivo, BALB/c mice; conditions: 14 d
# Method: For CT-26 syngeneic mouse colon cancer model female BALB/c (6–8 weeks old, Vivo Biotech, India) were used. 1x10^6 CT26 tumor cells in 100 μL of serum-free medium mixed with 1:1 ratio of matrigel were injected s.c. into the right flank of mice. […] During the experiment, body weights were measured 2–3 times a week and tumor volume was measured using callipers every other day in three dimensions. Tumor volume was calculated from the pi-based ellipsoid volume formula π/6*length*width*height. Mice were culled when the tumor volume reached either the ethical limit of 2000 mm^3 or if the tumor was ulcerated. The percentage change in tumor volume from baseline was used to assess the response to treatment. Tumor measurements were performed in a blinded manner throughout the study.
# [8] = system: acetylation of α-Tubulin; assay: Western blot of tubulin acetylation in HEL92.1.7 cells; format: cell-based, human; conditions: HEL92.1.7, 3 to 48 h, 8 point dose response from 10 μM
# Method: Cells were harvested and washed twice with cold PBS after the indicated treatments. Cell pellets were lysed in 30μl of lysis buffer (50 mM Tris-HCl, pH 7.4, 150 mM NaCl, 1% Triton X-100, 0.1% SDS, 1 mM EDTA, 1 mM Na3VO4, 1 mM NaF, and protease inhibitor cocktail) for 30 min on ice. Lysates were centrifuged at 12,000 ×g for 20 min at 4°C, and the protein content in the supernatants was determined using the Bradford reagent (Bio-Rad). Equal amount of protein lysate was resolved by SDS-PAGE and transferred onto a nitrocellulose membrane (Bio-Rad). Membranes were blocked with 5% non-fat milk powder in PBS-Tween 20 buffer for 1 h, followed by incubation with primary antibody at 4°C overnight. Membranes were washed in PBST and then incubated with HRP-conjugated anti-goat or mouse anti- IgG (Cell Signalling Technology) antibody and detected using the Millipore ECL Western Blot substrate. β-actin was used as a loading control. Antibodies were obtained from the following sources: Acetyl-α- Tubulin (Cell Signalling Technology, […], 1:500), β-actin (Santa Cruz Biotechnology, sc47778, 1:2000), HRP-conjugated secondary antibodies (Santa Cruz Biotechnology, 1:2000 for β-actin blots, 1:1000 for all others). Blots shown are representative of at least two independent experiments.
# [9] = system: Hep3B2; assay: Cell proliferation assay (Alamar Blue); format: cell-based; conditions: Homo sapiens, Hep3B; Hep3B2, Hepatocellular Carcinoma, 144 h
# Method: as §2
# [10] = system: H1341; assay: Cell proliferation assay (Alamar Blue); format: cell-based; conditions: H1341, SCLC, 144 h
# Method: as §2
# [11] = system: OCI-AML3; assay: Cell proliferation assay (Alamar Blue); format: cell-based; conditions: Homo sapiens, OCI-AML-3; OCI-AML3, Leukemia, 144 h
# Method: as §2
# [12] = system: SKMeI2; assay: Cell proliferation assay (Alamar Blue); format: cell-based; conditions: SKMeI2, Melanoma, 144 h
# Method: as §2
# [13] = system: Colo-289; assay: Cell proliferation assay (Alamar Blue); format: cell-based; conditions: Colo-289, Melanoma, 144 h
# Method: as §2
# [14] = system: H510A; assay: Cell proliferation assay (Alamar Blue); format: cell-based; conditions: Homo sapiens, NCI-H510A, SCLC, 144 h
# Method: as §2
# [15] = system: HL60; assay: Cell proliferation assay (Alamar Blue); format: cell-based; conditions: Homo sapiens, HL-60; HL60, Leukemia, 144 h
# Method: as §2
# [16] = system: THP-1; assay: Cell proliferation assay (Alamar Blue); format: cell-based; conditions: Homo sapiens; THP-1, Leukemia, 144 h
# Method: as §2
# [17] = system: HL60-MX1; assay: Cell proliferation assay (Alamar Blue); format: cell-based; conditions: HL60-MX1, Leukemia, 144 h
# Method: as §2
# [18] = system: WM-266-4; assay: Cell proliferation assay (Alamar Blue); format: cell-based; conditions: Homo sapiens; WM-266-4, Melanoma, 144 h
# Method: as §2
# [19] = system: H2171; assay: Cell proliferation assay (Alamar Blue); format: cell-based; conditions: Homo sapiens, NCI-H2171; H2171, SCLC, 144 h
# Method: as §2
# [20] = system: Hep-G2; assay: Cell proliferation assay (Alamar Blue); format: cell-based; conditions: Homo sapiens, HepG2; Hep-G2, Hepatocellular Carcinoma, 144 h
# Method: as §2
# [21] = system: G362; assay: Cell proliferation assay (Alamar Blue); format: cell-based; conditions: G362, Melanoma, 144 h
# Method: as §2
# [22] = system: HT144; assay: Cell proliferation assay (Alamar Blue); format: cell-based; conditions: Homo sapiens, HT-144; HT144, Melanoma, 144 h
# Method: as §2
# [23] = system: MM1.R; assay: Cell proliferation assay (Alamar Blue); format: cell-based; conditions: MM.1R, Multiple Myeloma, 144 h
# Method: as §2
# [24] = system: RPMI-7591; assay: Cell proliferation assay (Alamar Blue); format: cell-based; conditions: RPMI-7591, Melanoma, 144 h
# Method: as §2
# [25] = target: hHDAC8 (Homo sapiens, UniProt Q9BY41); assay: Thermal shift assay (SYPRO Orange); format: binding; conditions: protein:compound 1:15; Tm without compound 41°C
# Method: (§4) The melting temperature (Tm) of human LSD1 and HDAC8 proteins were determined by fluorescence based thermal shift assay. Reaction mixture containing 0.5 μM protein, 5X SYPRO™ Orange Protein Gel Stain (Thermo Fisher Scientific Cat: S6650), compound at 10-fold excess for hLSD1, 15-fold excess for hHDAC8. The final volume made up with respective protein buffers. All experiments were done in triplicates at 50 μL reaction volume. The samples heated from 15°C to 95°C with an increment of 1°C per 30sec using CFX96™ Real-Time PCR Detection system–C1000 Thermal Cycler (Bio-Rad). Filters custom configured to the optimal excitation (492 nm) and emission (610 nm) wavelengths for SYPRO orange dye. Protein denaturation monitored by the increase in fluorescence signal emitted by SYPRO Orange. The SYPRO Orange binds to the exposed hydrophobic regions of protein undergoing thermal denaturation and corresponding fluorescence emissions are recorded as melt curves. The temperature corresponding to the inflection point, Tm is determined by calculating the first derivative from melt curve using CFX manager 3.1 software (Bio-Rad).
# [26] = target: T1, human LSD1 (Homo sapiens, UniProt O60341); assay: Thermal shift assay (SYPRO Orange); format: binding; conditions: protein:compound 1:10; Tm in the absence of compound 43°C
# T1 construct: Tm of full length LSD1 protein in the absence of compound was 43°C
# Method: as §4
# [27] = system: HEL92.1.7 xenograft tumors; assay: HEL92.1.7 erythroleukaemia xenograft model; format: in vivo; conditions: for % tumor growth inhibition (TGI): PO, QD, 14 days
# [28] = system: panel of non-small lung cancer, melanoma, and hepatocellular carcinoma tumor cell lines; assay: Cell proliferation assay, solid tumor cell line panel; format: cell-based; conditions: 144 h; 6 days; range over cell lines; read-out: EC50 values across solid tumor panel
# Method: as §2
# [29] = target: T2, HDAC1 (Homo sapiens, UniProt Q13547); assay: HDAC isoform inhibition assay (Reaction Biology); format: biochemical; conditions: generated at Reaction Biology Corporation
# T2 construct: purchased Reaction Biology Corporation (assay run at the CRO)
# [30] = target: T3, HDAC9 (Homo sapiens, UniProt Q9UKV0); assay: HDAC isoform inhibition assay (Reaction Biology); format: biochemical; conditions: generated at Reaction Biology Corporation
# T3 construct: purchased Reaction Biology Corporation (assay run at the CRO)
# Method: as §3
# [31] = target: T4, HDAC5 (Homo sapiens, UniProt Q9UQL6); assay: HDAC isoform inhibition assay (Reaction Biology); format: biochemical; conditions: generated at Reaction Biology Corporation
# T4 construct: purchased Reaction Biology Corporation (assay run at the CRO)
# Method: as §3
# [32] = target: T5, HDAC7 (Homo sapiens, UniProt Q8WUI4); assay: HDAC isoform inhibition assay (Reaction Biology); format: biochemical; conditions: generated at Reaction Biology Corporation
# T5 construct: purchased Reaction Biology Corporation (assay run at the CRO)
# Method: as §3
# [33] = target: T6, HDAC2 (Homo sapiens, UniProt Q92769); assay: HDAC isoform inhibition assay (Reaction Biology); format: biochemical; conditions: generated at Reaction Biology Corporation
# T6 construct: purchased Reaction Biology Corporation (assay run at the CRO)
# Method: as §3
# T2 sequence (Q13547 whole entry, canonical isoform): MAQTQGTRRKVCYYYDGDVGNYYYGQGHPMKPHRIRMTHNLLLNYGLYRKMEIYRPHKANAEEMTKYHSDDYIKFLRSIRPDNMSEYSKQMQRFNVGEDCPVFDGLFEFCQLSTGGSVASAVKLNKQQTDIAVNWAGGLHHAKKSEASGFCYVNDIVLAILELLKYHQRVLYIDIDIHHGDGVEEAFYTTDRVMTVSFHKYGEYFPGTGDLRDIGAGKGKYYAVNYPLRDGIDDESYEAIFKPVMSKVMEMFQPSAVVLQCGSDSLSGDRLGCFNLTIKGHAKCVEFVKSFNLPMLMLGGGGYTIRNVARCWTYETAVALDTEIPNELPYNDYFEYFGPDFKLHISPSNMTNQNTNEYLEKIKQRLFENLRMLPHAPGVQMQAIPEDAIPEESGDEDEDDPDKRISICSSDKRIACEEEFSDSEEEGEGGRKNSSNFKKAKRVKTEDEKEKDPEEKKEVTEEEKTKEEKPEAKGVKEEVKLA
# Chain of hHDAC8 (Q9BY41 whole entry): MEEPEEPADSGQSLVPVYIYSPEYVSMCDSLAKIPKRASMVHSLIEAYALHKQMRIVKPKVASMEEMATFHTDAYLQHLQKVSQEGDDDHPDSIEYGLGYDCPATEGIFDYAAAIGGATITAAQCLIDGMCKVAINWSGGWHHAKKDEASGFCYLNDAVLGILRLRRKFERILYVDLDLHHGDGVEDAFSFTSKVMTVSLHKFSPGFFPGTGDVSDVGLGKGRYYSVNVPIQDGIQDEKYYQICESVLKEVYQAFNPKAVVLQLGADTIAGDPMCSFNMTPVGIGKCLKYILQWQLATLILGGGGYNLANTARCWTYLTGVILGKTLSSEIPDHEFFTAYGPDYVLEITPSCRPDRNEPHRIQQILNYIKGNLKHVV
# T6 sequence (Q92769 whole entry, canonical isoform): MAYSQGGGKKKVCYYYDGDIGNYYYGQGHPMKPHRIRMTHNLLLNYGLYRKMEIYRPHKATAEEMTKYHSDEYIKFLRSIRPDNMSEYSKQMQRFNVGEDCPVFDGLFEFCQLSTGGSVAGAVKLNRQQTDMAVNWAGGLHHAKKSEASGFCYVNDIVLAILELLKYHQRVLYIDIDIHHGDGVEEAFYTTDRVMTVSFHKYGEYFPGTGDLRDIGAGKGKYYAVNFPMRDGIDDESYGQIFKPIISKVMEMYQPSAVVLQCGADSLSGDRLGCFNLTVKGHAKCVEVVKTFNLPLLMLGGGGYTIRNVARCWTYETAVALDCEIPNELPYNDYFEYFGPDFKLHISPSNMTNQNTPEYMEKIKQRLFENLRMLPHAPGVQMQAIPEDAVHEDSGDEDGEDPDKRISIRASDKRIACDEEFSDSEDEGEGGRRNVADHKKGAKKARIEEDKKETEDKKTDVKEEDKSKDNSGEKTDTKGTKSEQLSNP
# T5 sequence (Q8WUI4 whole entry, canonical isoform): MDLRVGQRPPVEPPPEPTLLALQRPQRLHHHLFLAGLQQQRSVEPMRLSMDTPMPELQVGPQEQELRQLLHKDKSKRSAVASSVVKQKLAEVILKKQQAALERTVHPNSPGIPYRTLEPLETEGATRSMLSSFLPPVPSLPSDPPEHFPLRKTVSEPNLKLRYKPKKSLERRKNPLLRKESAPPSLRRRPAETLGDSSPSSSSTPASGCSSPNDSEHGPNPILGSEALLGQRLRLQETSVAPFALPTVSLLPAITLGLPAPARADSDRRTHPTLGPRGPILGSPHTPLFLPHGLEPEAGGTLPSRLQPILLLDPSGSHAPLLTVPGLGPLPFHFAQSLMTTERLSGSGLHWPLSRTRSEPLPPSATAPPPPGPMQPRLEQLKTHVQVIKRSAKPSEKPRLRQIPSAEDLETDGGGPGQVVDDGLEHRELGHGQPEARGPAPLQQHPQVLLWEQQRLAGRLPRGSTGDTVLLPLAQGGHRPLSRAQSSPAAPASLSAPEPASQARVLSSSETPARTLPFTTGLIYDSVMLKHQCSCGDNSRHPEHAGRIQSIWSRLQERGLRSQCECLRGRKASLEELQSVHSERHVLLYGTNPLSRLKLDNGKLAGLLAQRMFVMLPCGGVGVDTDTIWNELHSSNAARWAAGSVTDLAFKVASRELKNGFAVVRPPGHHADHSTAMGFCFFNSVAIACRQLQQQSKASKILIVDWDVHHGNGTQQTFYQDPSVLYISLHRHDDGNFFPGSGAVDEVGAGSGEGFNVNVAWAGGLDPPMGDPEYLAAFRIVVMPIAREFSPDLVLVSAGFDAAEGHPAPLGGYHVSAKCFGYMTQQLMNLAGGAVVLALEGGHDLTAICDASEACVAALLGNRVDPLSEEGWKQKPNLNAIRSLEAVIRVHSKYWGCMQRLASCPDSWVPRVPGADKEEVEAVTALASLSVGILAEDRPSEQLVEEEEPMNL
# T3 sequence (Q9UKV0 whole entry, canonical isoform): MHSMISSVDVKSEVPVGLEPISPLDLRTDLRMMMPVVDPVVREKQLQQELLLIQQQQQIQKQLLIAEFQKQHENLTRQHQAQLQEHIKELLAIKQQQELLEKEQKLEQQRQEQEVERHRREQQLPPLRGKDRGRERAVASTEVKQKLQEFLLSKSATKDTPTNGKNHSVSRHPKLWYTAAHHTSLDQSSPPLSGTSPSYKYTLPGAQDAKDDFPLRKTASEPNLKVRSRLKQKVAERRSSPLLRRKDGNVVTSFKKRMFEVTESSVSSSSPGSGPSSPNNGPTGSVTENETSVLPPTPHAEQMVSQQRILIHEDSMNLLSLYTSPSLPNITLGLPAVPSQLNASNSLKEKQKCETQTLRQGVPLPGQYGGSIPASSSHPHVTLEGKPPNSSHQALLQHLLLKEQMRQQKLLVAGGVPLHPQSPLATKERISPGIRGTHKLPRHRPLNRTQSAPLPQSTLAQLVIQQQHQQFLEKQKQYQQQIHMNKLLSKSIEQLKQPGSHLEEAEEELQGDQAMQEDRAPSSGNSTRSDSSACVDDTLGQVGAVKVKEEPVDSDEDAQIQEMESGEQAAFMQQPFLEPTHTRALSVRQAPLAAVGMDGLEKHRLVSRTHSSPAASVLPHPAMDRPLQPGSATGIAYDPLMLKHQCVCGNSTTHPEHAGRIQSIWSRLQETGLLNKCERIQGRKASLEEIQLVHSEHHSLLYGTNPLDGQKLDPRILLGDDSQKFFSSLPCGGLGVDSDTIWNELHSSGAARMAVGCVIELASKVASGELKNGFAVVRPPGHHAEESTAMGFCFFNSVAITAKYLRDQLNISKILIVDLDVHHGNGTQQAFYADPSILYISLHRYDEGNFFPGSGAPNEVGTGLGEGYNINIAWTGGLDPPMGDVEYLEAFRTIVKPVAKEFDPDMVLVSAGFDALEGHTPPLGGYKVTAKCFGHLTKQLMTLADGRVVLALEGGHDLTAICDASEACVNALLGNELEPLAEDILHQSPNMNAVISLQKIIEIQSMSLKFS
# T4 sequence (Q9UQL6 whole entry, canonical isoform): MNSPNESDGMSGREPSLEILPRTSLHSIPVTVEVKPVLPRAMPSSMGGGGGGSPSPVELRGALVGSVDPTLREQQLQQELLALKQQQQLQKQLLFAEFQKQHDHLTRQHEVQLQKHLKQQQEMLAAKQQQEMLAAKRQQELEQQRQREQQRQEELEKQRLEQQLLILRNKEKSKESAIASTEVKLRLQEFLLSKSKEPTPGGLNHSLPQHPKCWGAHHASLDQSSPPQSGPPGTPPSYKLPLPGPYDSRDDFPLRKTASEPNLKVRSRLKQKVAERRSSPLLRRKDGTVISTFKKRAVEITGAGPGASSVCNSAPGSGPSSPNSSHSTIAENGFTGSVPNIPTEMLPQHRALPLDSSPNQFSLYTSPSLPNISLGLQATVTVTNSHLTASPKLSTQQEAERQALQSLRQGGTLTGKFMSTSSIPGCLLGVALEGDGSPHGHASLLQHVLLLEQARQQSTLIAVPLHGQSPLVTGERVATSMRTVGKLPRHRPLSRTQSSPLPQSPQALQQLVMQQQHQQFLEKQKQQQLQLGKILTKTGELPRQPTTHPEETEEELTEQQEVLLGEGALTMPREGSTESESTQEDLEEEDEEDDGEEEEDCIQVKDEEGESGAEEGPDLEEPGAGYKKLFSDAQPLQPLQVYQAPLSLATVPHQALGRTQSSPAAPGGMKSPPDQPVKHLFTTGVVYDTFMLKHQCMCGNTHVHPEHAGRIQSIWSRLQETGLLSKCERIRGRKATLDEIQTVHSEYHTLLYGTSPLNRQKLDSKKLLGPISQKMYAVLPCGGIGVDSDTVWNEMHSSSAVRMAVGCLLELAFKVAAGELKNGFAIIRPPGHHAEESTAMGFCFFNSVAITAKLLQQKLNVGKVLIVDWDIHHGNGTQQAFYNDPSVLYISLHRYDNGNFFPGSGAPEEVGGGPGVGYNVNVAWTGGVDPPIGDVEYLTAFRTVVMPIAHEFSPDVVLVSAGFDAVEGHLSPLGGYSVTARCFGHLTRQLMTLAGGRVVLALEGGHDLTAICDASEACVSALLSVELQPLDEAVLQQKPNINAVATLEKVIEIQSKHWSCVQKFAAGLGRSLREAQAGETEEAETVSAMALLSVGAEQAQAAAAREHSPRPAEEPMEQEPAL
compound,measurement,setting,value
O=C(NO)c1ccc(CCCN2CCC(CN[C@H]3C[C@@H]3c3ccccc3)CC2)cc1 (relative stereo) [JBI-097],TGI,[1]; JBI-097 12.5 mg/kg PO in combination with BTZ (0.5 mg/kg IP BIW),82%
same,tolerability,[1]; JBI-097 12.5 mg/kg PO in combination with Pomalidomide,well tolerated
same,TGI,[1]; JBI-097 12.5 mg/kg PO in combination with pomalidomide (2.5 mg/kg PO 5x/week),60%
same,TGI,"[1]; single agent, 12.5 mg/Kg PO QD",23%
same,CD86 modulation (mRNA),[2],strong and sustained up-regulation
same,CD11b modulation (mRNA),[3],strong and sustained up-regulation
same,GFI1b modulation (mRNA),[4],strong and sustained up-regulation
same,cell growth inhibition reached (plateau),"[5]; HEL92.1.7, 6 days of incubation, up to 10 μM",100%
same,EC50,"[5]; HEL 92.1.7, read-out: anti-proliferative EC50, HEL92.1.7, 3 days (72 h) of incubation",722 nM
same,EC50,"[5]; HEL 92.1.7, Leukemia, 144 h, read-out: EC50, 144hr",49 nM
same,IC50,[6],≥ 1100 nM
same,TGI,[7]; JBI-097 20 mg/kg PO in combination with anti-PD-L1 100 μg/animal IP Q4D,76%
same,TGI,"[7]; JBI-097 alone, 20 mg/kg PO, 5 days on 2 days off",50%
same,acetylation of α-Tubulin,[8],time and concentration dependent increase
same,EC50,[9],1300 nM
same,EC50,[10],3260 nM
same,EC50,[11],30 nM
same,EC50,[12],1830 nM
same,EC50,[13],2180 nM
same,EC50,[14],1060 nM
same,EC50,[15],1500 nM
same,EC50,[16],226 nM
same,EC50,[17],34 nM
same,EC50,[18],6830 nM
same,EC50,[19],2700 nM
same,EC50,[20],1100 nM
same,EC50,[21],7640 nM
same,EC50,[22],3140 nM
same,EC50,[23],29 nM
same,EC50,[24],8090 nM
same,Tm of HDAC8 incubated with compound,[25],47 °C
same,Tm of LSD1 incubated with compound,[26],55 °C
same,% tumor growth inhibition (TGI),[27]; 25 mg/kg,76%
same,body weight loss,"[27]; 50 mg/kg group, observed in 2 animals",5–10%
same,% tumor growth inhibition (TGI),[27]; 50 mg/kg,91%
same,EC50,[28],1060 to 8090 nM
same,IC50,[29],3400 nM
same,IC50,[30],3430 nM
same,IC50,[31],1140 nM
same,IC50,[32],3580 nM
same,IC50,[33],3950 nM
"CC(C)C[C@H](NC(=O)[C@H](Cc1ccccc1)NC(=O)c1cnccn1)B(O)O [Bortezomib, reference compound]",mortality,"[1]; Bortezomib 0.5 mg/kg IP BIW, mice dead/group",1/7
